The values that follow come from patent US7186702B2, “Method of treating leishmaniasis using methyl-beta-cyclodextrin” (priority 2002, dated 2007).

In assay [1] the test system is J774A.1 macrophages. In words: Cholesterol depletion and estimation (Amplex Red cholesterol assay kit). In kind it is cell-based, murine. Here is the method: (§1) Cells and cell culture. A murine macrophage cell line J774A.1 (American Type Culture Collection, Rockville, Md.) was used. The cells were maintained at 37° C. in RPMI-1640 medium containing 10% heat inactivated fetal calf serum (FCS)(Biological Industries, Israel) in a CO2 incubator (5% CO2) as described previously^10. The macrophages were seeded onto tissue culture plates (60 mm) at a density of 1×10^5 cells/plate and grown for 48 hrs before use.
(§2) Cholesterol depletion and estimation. J774A.1 cells grown on culture dishes were depleted of cholesterol by incubating for 30 min with 5 or 10 mM methyl-β-cyclodextrin (Sigma) at 37° C. in serum free medium^13,23. Total cellular cholesterol was estimated using Amplex Red cholesterol assay kit^27 (Molecular Probes). Cholesterol values were normalized to protein levels estimated using BCA assay reagent kit^28 (Pierce).

The subject of assay [2] is Leishmania donovani strain AG83. The experiment in a line: Ligand binding assay of [3H]thymidine labeled promastigotes to macrophages. The class given is cell-based. The conditions noted are these: 10 mM, J774A.1 macrophages, parasite:macrophage 10:1, assayed till 90 min. Here is the method:
as §1
(§3) Parasite culture. Leishmania donovani strain AG83 (MHOM/IN/1983/AG83) promastigotes were maintained at 24° C. in modified M-199 medium (Gibco/BRL) supplemented with 100 units/ml penicillin (Sigma, U.S.A.), 100 µg/ml streptomycin (Sigma, U.S.A.), and 10% heat inactivated FCS.
(§4) Cholesterol depletion and estimation. […]
(§5) Infecting macrophages with Leishmania. […] The monolayers were gently scraped to resuspend the macrophage-parasite complexes and the resulting cell suspension was analyzed either for radiolabel incorporation or macrophage-associated fluorescence. The percentage of infected macrophages was >95% after 3 hr with 5–8 amastigotes per macrophage as determined by Giemsa staining.
(§6) Labeling L. donovani AG83 promastigotes with tritium or FITC for binding studies. […] The fluorescence from the FITC-labeled parasites associated with the macrophages was analyzed with a Beckman Coulter ELITE ESP flow cytometer (Miami, Fla.) using EXPO 32 software.

The test system is the same in assay [3]. The experiment in a line: Flow cytometric analysis of binding of FITC-labeled promastigotes to macrophages. The conditions noted are these: 10 mM, J774A.1 macrophages, parasite:macrophage 10:1, especially after 90 min. The class given is cell-based. On the procedure: as §1, §3, §4, §5, §6
For assay [4] the test system is unchanged. The experiment in a line: Intracellular amastigote count in infected macrophages by Giemsa staining. The class given is cell-based. Conditions: J774A.1 macrophages. Here is the method: as §1, §3, §2
Infecting macrophages with Leishmania. Promastigotes were added onto the macrophage monolayers (both control and cholesterol-depleted) at a parasite: macrophage ratio of 10:1. The parasite-macrophage interaction was allowed to progress for 15, 30 and 90 min at 37° C. At the end of incubation, monolayers were washed with phosphate buffered saline (PBS) to remove free parasites and placed on ice to loosen adherent cells from the plates. The monolayers were gently scraped to resuspend the macrophage-parasite complexes and the resulting cell suspension was analyzed either for radiolabel incorporation or macrophage-associated fluorescence. The percentage of infected macrophages was >95% after 3 hr with 5–8 amastigotes per macrophage as determined by Giemsa staining.

With methyl-β-cyclodextrin, in assay [1] (10 mM, 30 min incubation, total cellular cholesterol), the “reduction of cellular cholesterol” value was approximately 40%. The “total cellular cholesterol upon treatment (FIG. 1)” value in assay [1] (5 or 10 mM) is listed as “concentration-dependent reduction”. In addition, in assay [2], the “reduction in macrophage-parasite interaction (attachment) compared to control cells” value is reported as approximately 45%. The “fluorescence associated with cholesterol-depleted macrophages compared to control (FIG. 3)” value in assay [3] was “pronounced reduction in fluorescence”. Moreover, the “number of amastigotes present compared to control cells” value in assay [4] (5 mM, multiplicity of infection 10:1, 3 hr) is “concomitant reduction in the number of amastigotes”. For the same substance, the “amastigotes present compared to control cells” value in assay [4] (10 mM) is on record as 50%. Further, the “reduction in the number of intracellular amastigotes” value in assay [4] (10 mM, multiplicity of infection 10:1, 3 hr) was approximately 50%.
